Entries after “also recorded” stand apart in the source; their conditions may differ.
How the values were obtained:
[1] = test system: IL2R-CISC expressing primary human T-cells; experiment: Selective enrichment of IL2R-CISC expressing T cells, flow cytometry of cis-linked GFP/mCherry marker; type: cell-based; conditions: for mCherry positive cells: IL2R-CISC V3 cells, by 15 days culture in the ligand, starting transduced population 64% mCherry positive
Description: Each architecture of IL2R-CISC (i.e. 1210, 1211, and 1233) was cis-linked together with GFP using 2A sequences, and placed under the control of an MND promoter in a lentiviral expression cassette (as schematized in FIG. 5, bottom). Lentiviral particles from each IL2R-CISC architecture were generated and used to transduce primary human T-cells.
Lentiviral particles from each IL2R-CISC architecture were generated and used to transduce primary human T-cells. CD4+ T cells were activated for 60 hours. […] Lentivirus was transduced with or without beads, using 15 μL of IL2R-CISC and 3 μL of MND-GFP control with protamine sulfate at 4 μg/mL (0.5 mL medium) in a 24-well dish. The cells were then spinoculated at 800 g for 30 minutes at 33° C. followed by the addition of 1.5 mL medium after 4 hours of incubation. […] The GFP signal was determined and the IL2R-CISC level of transduced T cells was determined.
The T cell viability was determined and the expression of GFP+ population and IL2R-CISC expression was determined by using anti-FRB antibody and a secondary APC antibody.

[2] = test system: gene targeted CD4+ T cells expressing GFP-FOXP3 and IL2R-CISC V3; experiment: Targeted knock-in of MND promoter and CISC into FOXP3 locus, enrichment of gene targeted cells (GFP-FOXP3 flow cytometry); type: cell-based; conditions: 15 days culture; 10 nM ligand
Excerpt: The described targeting approach integrates a promoter and both components of an IL2R-CISC V3 into the FOXP3 locus in line with a GFP fusion to the native FOXP3 gene. This architecture is intended to allow for ligand-induced selection of cells which have undergone an accurate gene targeting event.
FIG. 26 depicts a schematic diagram showing an experimental design of targeted knock-in of MND promoter and CISC. This represents an experimental schematic of how a CRISP/Cas9 nuclease is used to induce targeted integration of the cassettes from FIG. 25 into the FOXP3 locus, followed by expansion of the gene targeted cells in the indicated IL2R-CISC ligand.
Following targeted integration into the FOXP3 locus utilizing the indicated approaches (no targeting, or RNP plus each of the cassettes described in FIG. 25), cells were cultured in the indicated conditions for 15 days, and then analyzed by flow cytometry for GFP-FOXP3 expression. […] Flow panels are representative of IL2R-CISC GFP-FOXP3 expression by cells cultured in rapamycin.
Following targeted integration into the FOXP3 locus utilizing the indicated approaches, cells were cultured in the indicated conditions for 15 days, and then analyzed by flow cytometry for GFP-FOXP3 expression.
In addition, the targeted knock-in of MND promoter and CISC was tested to enrich and/or expand gene targeted T cells. […]

[3] = test system: IL2R-CISC V3 expressing human CD4+ T cells; experiment: Expansion of IL2R-CISC expressing cells in culture (cell numbers); type: cell-based; conditions: for Dose inducing the most robust cell expansion / Cell expansion: 30 days
[4] = test system: STAT5 phosphorylation in IL2R-CISC expressing T cells; experiment: phospho-STAT5 signaling after 20 days of culture; type: cell-based, human; conditions: mock, GFP and IL2R-CISC cell types
[5] = test system: Akt activation in IL2R-CISC human CD4+ T cells; experiment: Western blot for Akt activation; type: cell-based; conditions: 15 days rapamycin 1 nM, 48 h cytokine starvation, stimulation with rapamycin 100 nM for 20 minutes
Description: IL2R-CISC human CD4+ T cells were analyzed following 15 days of rapamycin treatment at 1 nM, following by cytokine starvation for 48 hours.

| SMILES | mCherry positive cells [1] [%] | CD4+ T cell survival ([1]; IL2R-CISC V3 construct, in response to AP21967 (FIG. 15)) | Enrichment of FOXP3 expressing (gene targeted) cells [2] | Dose inducing the most robust cell expansion ([3]; 100 nM AP21967 (vs 10 nM)) | Cell expansion ([3]; AP21967 10 nM and 100 nM) | Phosphorylation of STAT5 in response to treatment [4] | Enrichment for IL2R-CISC expression read out by cis-linked GFP marker ([1]; 1233 architecture, 4 days post transduction, 2 days in rapamycin alone (1 nM)) | Enrichment of the GFP marker ([1]; 1233 architecture, 6 days post transduction, 4 days in rapamycin) | Enrichment of GFP+ cells ([1]; 1233 architecture, 9 days post transduction, 7 days in rapamycin) | Cells expressing the 1233 IL2R-CISC enriched to % of the cell population (GFP+) ([1]; 1233 architecture, 17 days post transduction, 15 days culture in rapamycin alone (1 nM)) [%] | Akt activation [5] | Expansion of mCherry positive cell numbers ([3]; 25 days) | Dose inducing the most robust cell expansion ([3]; 1 nM rapamycin (vs 10 nM)) | Cell expansion ([3]; rapamycin 1 nM and 10 nM) |
| --- | --- | --- | --- | --- | --- | --- | --- | --- | --- | --- | --- | --- | --- | --- |
| CO[C@H]1[C@@H](O)[C@H](C)C[C@H](C)/C=C/C=C/C=C(\C)[C@@H](c2c[nH]c3c(C)cccc23)C[C@@H]2CC[C@@H](C)[C@@](O)(O2)C(=O)C(=O)N2CCCC[C@H]2C(=O)O[C@H]([C@H](C)C[C@@H]2CC[C@@H](O)[C@H](OC)C2)C[C@H](O)[C@H](C)/C=C(\C)[C@H]1O [AP21967, C-16-(S)-7-methylindolerapamycin] | > 93 | promotes human CD4+ T cell survival | substantial enrichment of FOXP3 expressing cells | most robust cell expansion | promotes CD4+ T cell proliferation; also recorded: significant AP21967-induced expansion |  |  |  |  |  |  |  |  |  |
| CO[C@H]1C[C@@H]2CC[C@@H](C)[C@@](O)(O2)C(=O)C(=O)N2CCCC[C@H]2C(=O)O[C@H]([C@H](C)C[C@@H]2CC[C@@H](O)[C@H](OC)C2)CC(=O)[C@H](C)/C=C(\C)[C@@H](O)[C@@H](OC)C(=O)[C@H](C)C[C@H](C)/C=C/C=C/C=C/1C [rapamycin, (3S,6R,7E,9R,10R,12R,14S,15E,17E,19E,21S,23S,26R,27R,34aS)-9,10,12,13,14,21,22,23,24,25,26,27,32,33,34,34a-hexadecahydro-9,27-dihydroxy-3-[(1R)-2-[(1S,3R,4R)-4-hydroxy-3-methoxycyclohexyl]-1-methylethyl]-10,21-dimethoxy-6,8,12,14,20,26-hexamethyl-23,27-epoxy-3H-pyrido[2,1-c][1,4] oxaazacyclohentriacontine-1,5,11,28,29 (4H,6H,31H)-pentone] | > 93 |  | substantial enrichment of FOXP3 expressing cells |  |  | only IL2R-CISC expressing cells respond to rapamycin with phosphorylation of STAT5 | enriched for IL2R-CISC expression; also recorded: beginning to enrich for IL2R-CISC expression | further enrichment of the GFP marker for 1233 | further enrichment of the 1233 GFP+ cells | 97 | Akt activation | significant rapamycin-induced expansion | most robust cell expansion | significant rapamycin-induced expansion |

— patent publication US12358970B2, “Methods of exogenous drug activation of chemical-induced signaling complexes expressed in engineered cells in vitro and in vivo” (Seattle Children's Hospital, priority 2016, dated 2025)
